# Molecular target: T1, hP2X3 (human Purinergic P2X receptors subtype 3), clone B (Homo sapiens, UniProt P56373)
# T1 sequence (P56373 1-397): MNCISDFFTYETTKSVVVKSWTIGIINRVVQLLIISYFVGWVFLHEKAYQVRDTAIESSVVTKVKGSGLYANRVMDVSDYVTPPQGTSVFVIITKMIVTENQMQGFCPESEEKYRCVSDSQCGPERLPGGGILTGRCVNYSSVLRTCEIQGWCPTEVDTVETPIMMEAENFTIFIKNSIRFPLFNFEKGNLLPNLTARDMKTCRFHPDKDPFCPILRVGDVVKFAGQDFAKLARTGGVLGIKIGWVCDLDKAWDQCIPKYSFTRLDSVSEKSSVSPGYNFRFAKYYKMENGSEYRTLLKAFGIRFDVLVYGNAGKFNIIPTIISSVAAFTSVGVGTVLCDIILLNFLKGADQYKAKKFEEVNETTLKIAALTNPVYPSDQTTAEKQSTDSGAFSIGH
# Experiment: hP2X3 FLIPR calcium (Fluo-4) antagonist assay, clone B
# Conditions: Human P2X3 FLIPR Clone B IC50 (nM), RLE cells expressing hP2X3 clone B (NM_002559); agonist 500 nM α,β-methylene-ATP
# Procedure: The assay used a calcium indicator dye (Fluo-4) that emits fluorescence, the intensity of which is related to the concentration of calcium that entered the cell when P2X3 was activated and the channel opened. Activation of hP2X3 or rat P2X3 and rat P2X2/3 (from the coexpression of rat P2X3 and rat P2×2) is elicited the by P2X3 agonist α,β methylene-ATP (Sigma M6517), and the resulting fluorescence is measured with a FLIPR II™ instrument (Molecular Devices). Compounds are tested for their ability to inhibit the agonist-induced fluorescent signal.
# For the rat P2X2/3 HEK-TREX cells, induction of the rat P2X3 expression is used to generate the rat P2X2/3 channels in HEK-TREX cells and performed by addition of 1 μg/mL tetracycline (Invitrogen) 24 h prior to compounds testing to the HEK-TREX expressing the rat P2X2 constitutively. On the day of the experiment, the cells and test compounds are prepared as follows. […] After preparing the compounds, the medium is removed from the cell plates by inversion. A loading solution of 30 μL assay buffer containing 4 μM of the calcium indicator dye FLUO-4 AM (Molecular Probes F14202) is added to each well using a Multidrop (Labsystems). […] The incubation is terminated by washing the cells four times in assay buffer using a Skatron Embla (Molecular Devices), and 25 μL of assay buffer was left in each well. Cell plates are then transferred to the FLIPR. Experiments are initiated by measuring a baseline fluorescence reading for 10 seconds, followed by the addition of 12.5 μL of cpds and data sampling for a total 280 seconds. The experiments are terminated by addition of 12.5 μL of a reference agonist (500 nM α,β-methylene-ATP) or buffer, producing a final assay volume of 50 μL followed by data sampling for an additional 280 seconds.
# In P2X3 antagonist experiments (human and rat assays) data are analysed as normalised maximal peak fluorescence monitored following agonist addition and calculated as percent of relative fluorescent counts from control agonist. The dose-response antagonist inhibition curves are analyzed in a 4-parameter sigmoidal fit using a non-linear curve-fitting program (XLfit version 5.0.6, ID Business Solutions Limited, Guildford, UK).
row,Structure (SMILES),IC50 [nM]
1,"CC(=O)NCCNc1nc(NC(c2ccccc2)c2ccccc2)c2c(n1)C(=O)N(C(C)C)C2 [Example 93, N-{2-[4-(Benzhydryl-amino)-6-isopropyl-7-oxo-6,7-dihydro-5H-pyrrolo[3,4-d]pyrimidin-2-ylamino]-ethyl}-acetamide]",290
2,"CC(C)N1Cc2c(NC(c3ccccc3)c3ccccc3)nc(NCc3cccnc3)nc2C1=O [Example 94, 4-(Benzhydryl-amino)-6-isopropyl-2-[(pyridin-3-ylmethyl)-amino]-5,6-dihydro-pyrrolo[3,4-d]pyrimidin-7-one]",250
3,"CC(C)N1Cc2c(NC(c3ccccc3)c3ccccc3)nc(NCCN(C)C)nc2C1=O [Example 97, 4-(Benzhydryl-amino)-2-(2-dimethylamino-ethylamino)-6-isopropyl-5,6-dihydro-pyrrolo[3,4-d]pyrimidin-7-one]",230
4,"COCCNc1nc(NC(c2ccccc2)c2ccc(C)cc2)c2c(n1)C(=O)N(C(C)C)C2 (stereo not drawn) [Example 98, 6-isopropyl-2-(2-methoxy-ethylamino)-4-[(phenyl-p-tolyl-methyl)-amino]-5,6-dihydro-pyrrolo[3,4-d]-pyrimidin-7-one]",210
5,CC(C)N1Cc2c(NC(c3ccccc3)c3ccccc3)nc(NCCO)nc2C1=O [Example 100],1100
6,"CCN1CCN(c2nc(NC(c3ccccc3)c3ccc(C)cc3)c3c(n2)C(=O)N(C(C)C)C3)CC1 (stereo not drawn) [Example 101, 2-(4-Ethyl-piperazin-1-yl)-6-isopropyl-4-[(phenyl-p-tolyl-methyl)-amino]-5,6-dihydro-pyrrolo[3,4-d]-pyrimidin-7-one]",150
7,"Cc1ccc(C(Nc2nc(N3CCN(C(C)C)CC3)nc3c2CN(C(C)C)C3=O)c2ccccc2)cc1 (stereo not drawn) [Example 102, 2-(4-isopropyl-piperazin-1-yl)-6-isopropyl-4-[(phenyl-p-tolyl-methyl)-amino]-5,6-dihydro-pyrrolo[3,4-d]-pyrimidin-7-one]",200
8,"CC(C)N1Cc2c(nc(NCCN(C)C)nc2N(Cc2ccccc2)Cc2ccccc2)C1=O [Example 106, 4-Dibenzylamino-2-(2-dimethylamino-ethylamino)-6-isopropyl-5,6-dihydro-pyrrolo[3,4-d]-pyrimidin-7-one]",5300
9,"CCN1CCN(c2nc(NCC(c3ccccc3)c3ccccc3)c3c(n2)C(=O)N(C(C)C)C3)CC1 [Example 107, 4-(2,2-Diphenyl-ethylamino)-2-(4-ethyl-piperazin-1-yl)-6-isopropyl-5,6-dihydro-pyrrolo[3,4-d]pyrimidin-7-one]",2300
10,"CC(C)N1Cc2c(NCC(c3ccccc3)c3ccccc3)nc(NCCCN(C)C)nc2C1=O [Example 108, 2-(3-Dimethylamino-propylamino)-4-(2,2-diphenyl-ethylamino)-6-isopropyl-5,6-dihydro-pyrrolo[3,4-d]pyrimidin-7-one]",4400
11,"CNCCNc1nc(NCC(c2ccccc2)c2ccccc2)c2c(n1)C(=O)N(C(C)C)C2 [Example 109, 4-(2,2-Diphenyl-ethylamino)-6-isopropyl-2-(2-methylamino-ethylamino)-5,6-dihydro-pyrrolo[3,4-d]pyrimidin-7-one]",7200
12,"CCCN1Cc2c(NC(c3ccccc3)c3ccccc3)nc(N3CCOCC3)nc2C1=O [Example 110, 4-[(diphenylmethyl)amino]-2-morpholin-4-yl-6-propyl-5,6-dihydro-7H-pyrrolo[3,4-d]pyrimidin-7-one]",3300
13,"CCN1CCN(c2nc(NC(c3ccccc3)c3ccccn3)c3c(n2)C(=O)N(C(C)C)C3)CC1 (stereo not drawn) [Example 119, 2-(4-ethylpiperazin-1-yl)-6-isopropyl-4-{[phenyl(pyridin-2-yl)methyl]amino}-5,6-dihydro-7H-pyrrolo[3,4-d]pyrimidin-7-one]",3200
14,"CC(C)N1Cc2c(NCc3cnc4ccccc4c3)nc(N3CCN4C(=O)CCC4C3)nc2C1=O (stereo not drawn) [Example 135, 6-Isopropyl-2-(6-oxohexahydropyrrolo[1,2-a]pyrazin-2(1H)-yl)-4-(quinolin-3-ylmethylamino)-5H-pyrrolo[3,4-d]pyrimidin-7(6M)-one]",870

# Other lines, results leading:
row,IC50 [nM],Structure (SMILES)
1,430,"CC(=O)N1CCN(c2nc3c(c(N(Cc4ccccc4)Cc4ccccc4)n2)CN(C(C)C)C3=O)CC1 [Example 95, 2-(4-Acetyl-piperazin-1-yl)-4-dibenzylamino-6-isopropyl-5,6-dihydro-pyrrolo[3,4-d]-pyrimidin-7-one]"
2,310,"COc1ccc(C(Nc2nc(N3CCN(C(C)=O)CC3)nc3c2CN(C(C)C)C3=O)c2ccccc2)cc1 (stereo not drawn) [Example 103, 2-(4-Acetyl-piperazin-1-yl)-6-isopropyl-4-{[(4-methoxy-phenyl)-phenyl-methyl]-amino}-5,6-dihydro-pyrrolo[3,4-d]pyrimidin-7-one]"
3,9300,"CC(=O)N1CCN(c2nc(Nc3cccc(C(C)C)c3)c3c(n2)C(=O)N(C(C)C)C3)CC1 [Example 105, 2-(4-Acetyl-piperazin-1-yl)-6-isopropyl-4-(3-isopropyl-phenylamino)-5,6-dihydro-pyrrolo[3,4-d]-pyrimidin-7-one]"
4,9000,"CC(=O)N1CCN(c2nc3c(c(N(C)Cc4ccc(Cl)cc4)n2)CN(C(C)C)C3=O)CC1 [Example 111, 2-(4-acetylpiperazin-1-yl)-4-[(4-chlorobenzyl)(methyl)amino]-6-isopropyl-5,6-dihydro-7H-pyrrolo[3,4-d]pyrimidin-7-one]"
5,460,"CC(=O)N1CCN(c2nc(NCC3(c4ccc(Cl)cc4)CCCC3)c3c(n2)C(=O)N(C(C)C)C3)CC1 [Example 113, 2-(4-acetylpiperazin-1-yl)-4-({[1-(4-chlorophenyl)cyclopentyl]methyl}amino)-6-isopropyl-5,6-dihydro-7H-pyrrolo[3,4-d]pyrimidin-7-one]"
6,3700,"CC(=O)N1CCN(c2nc3c(c(N4CCC[C@H]4Cc4ccccc4)n2)CN(C(C)C)C3=O)CC1 [Example 117, 2-(4-acetylpiperazin-1-yl)-4-[(2S)-2-benzylpyrrolidin-1-yl]-6-isopropyl-5,6-dihydro-7H-pyrrolo[3,4-d]pyrimidin-7-one]"
7,1100,"CCN1Cc2c(NC(C)(C)Cc3ccc(F)cc3)nc(N3CCN(C(C)=O)CC3)nc2C1=O [Example 118, 2-(4-acetylpiperazin-1-yl)-6-ethyl-4-{[2-(4-fluorophenyl)-1,1-dimethylethyl]amino}-5,6-dihydro-7H-pyrrolo[3,4-d]pyrimidin-7-one]"
8,1400,"CCN1CCN(c2nc(NC3c4cccnc4CCc4c(F)cccc43)c3c(n2)C(=O)N(C(C)C)C3)CC1 (stereo not drawn) [Example 120, 2-(4-ethylpiperazin-1-yl)-4-[(9-fluoro-10,11-dihydro-5H-benzo[4,5]cyclohepta[1,2-b]pyridin-5-yl)amino]-6-isopropyl-5,6-dihydro-7H-pyrrolo[3,4-d]pyrimidin-7-one]"
9,9100,"CC(=O)N1CCN(c2nc3c(c(N4CCOC(C)(c5ccc(Cl)cc5)C4)n2)CN(C(C)C)C3=O)CC1 (stereo not drawn) [Example 123, 2-(4-acetylpiperazin-1-yl)-4-[2-(4-chlorophenyl)-2-methylmorpholin-4-yl]-6-isopropyl-5,6-dihydro-7H-pyrrolo[3,4-d]pyrimidin-7-one]"
10,3000,"CC(C)C(=O)N1CCN(c2nc(NC(C)(C)Cc3ccc(Cl)cc3)c3c(n2)C(=O)N(C(C)C)C3)CC1 [Example 124, 4-{[2-(4-chlorophenyl)-1,1-dimethylethyl]amino}-2-(4-isobutyrylpiperazin-1-yl)-6-isopropyl-5,6-dihydro-7H-pyrrolo[3,4-d]pyrimidin-7-one]"
11,3800,"CC(C)N1Cc2c(NC(C)(C)Cc3ccc(Cl)cc3)nc(N3CCN(C(=O)C(C)(C)C)CC3)nc2C1=O [Example 125, 4-{[2-(4-chlorophenyl)-1,1-dimethylethyl]amino}-2-[4-(2,2-dimethylpropanoyl)piperazin-1-yl]-6-isopropyl-5,6-dihydro-7H-pyrrolo[3,4-d]pyrimidin-7-one]"
12,2300,"CC(C)N1Cc2c(NC(C)(C)Cc3ccc(Cl)cc3)nc(N3CCN(C(=O)C4CC4)CC3)nc2C1=O [Example 126, 4-{[2-(4-chlorophenyl)-1,1-dimethylethyl]amino}-2-[4-(cyclopropylcarbonyl)piperazin-1-yl]-6-isopropyl-5,6-dihydro-7H-pyrrolo[3,4-d]pyrimidin-7-one]"
13,2200,"CC(C)N1Cc2c(NC(C)(C)Cc3ccc(Cl)cc3)nc(N3CCN(C(=O)N(C)C)CC3)nc2C1=O [Example 127, 4-(4-{[2-(4-chlorophenyl)-1,1-dimethylethyl]amino}-6-isopropyl-7-oxo-6,7-dihydro-5H-pyrrolo[3,4-d]pyrimidin-2-yl)-N,N-dimethylpiperazine-1-carboxamide]"
14,280,"CC(C)N1Cc2c(NC(C)(C)Cc3ccc(Cl)cc3)nc(N3CCN(C=O)CC3)nc2C1=O [Example 128, 4-(4-{[2-(4-chlorophenyl)-1,1-dimethylethyl]amino}-6-isopropyl-7-oxo-6,7-dihydro-5H-pyrrolo[3,4-d]pyrimidin-2-yl)piperazine-1-carbaldehyde]"
15,150,"CC(=O)N1CCN(c2nc3c(c(N4CCCC4Cc4ccc(F)cc4)n2)CN(C(C)C)C3=O)CC1 (stereo not drawn) [Example 129, 2-(4-Acetylpiperazin-1-yl)-4-[2-(4-fluorobenzyl)-pyrrolidin-1-yl]-6-isopropyl-5H-pyrrolo[3,4-d]pyrimidin-7(6H)-one]"
16,4200,"CC(=O)N1CCN(c2nc(NC3CCc4cc(Cl)ccc43)c3c(n2)C(=O)N(C(C)C)C3)CC1 (stereo not drawn) [Example 133, 2-(4-Acetylpiperazin-1-yl)-4-(5-chloro-2,3-dihydro-1H-inden-1-ylamino)-6-isopropyl-5H-pyrrolo[3,4-d]pyrimidin-7(6H)-one]"
